Results published in patent US11970712B2, “Midbrain dopamine (DA) neurons for engraftment” (MEMORIAL SLOAN-KETTERING CANCER CENTER, priority 2011, dated 2024).

Legend:
hESC = assay: Immunocytochemistry, percentage of marker positive cells in differentiating cultures; assay type: cell-based, human
Procedure: (§1) Immunohistochemistry: Cells were fixed in 4% PFA and blocked with 1% bovine serum albumin (BSA) with 0.3% Triton. Brain tissue sections were washed in cold PBS and processed similarly. Primary antibodies were diluted in 1-5% BSA or Normal Goat Serum and incubated according to manufacturer recommendations. A comprehensive list of antibodies and sources is provided as Table 6. Appropriate Alexa488, Alexa555 and Alexa647-conjugated secondary antibodies (Molecular Probes, Carlsbad, California) were used with 4′,6-diamidino-2-phenylindole (DAPI) nuclear counterstain (Thermo Fisher, Rockford, Illinois). For some analyses biotinylated secondary antibodies were used followed by visualization via DAB (3,3′-Diaminobenzidine) chromogen.
Cell Counts and Stereological Analyses. The percentages of marker positive cells at the floor plate (day 11) FIG. 1, midbrain dopamine neuron precursor (day 25), FIG. 2 and mature DA neuron stages (day 50 or later) FIGS. 3 and 11, were determined in samples derived from at least 3 independent experiments each. Images for quantification were selected in a uniform random manner and each image was scored first for the number of DAPI-positive nuclei, followed by counting the number of cells expressing the marker of interest. Data are presented as mean±SEM. Quantification of human cells (identified with anti-hNA) and TH+ neurons within grafts was performed on every tenth section where a graft was identifiable. Cell counts and graft volume was determined using the optical fractionator's probe and the Cavalieri estimator using the Stereo Investigator software (MBF bioscience, Vermont) as described previously in Tabar, et al. Nat. Biotechnol. 23:601-606 (2005), herein incorporated by reference. Data are presented as estimated total cell number and total graft volume+/−standard error of means (SEM).
as §1, with “chromogen. HPLC” for “chromogen.”
Analysis. Reversed-phase HPLC with electrochemical detection for measuring levels of dopamine, Homovanillic acid (HVA) and DOPAC (3,4-Dihydroxy-Phenylacetic Acid) was performed as described previously (Roy, et al. Nature Med. 12:1259-1268 (2006); Studer, et al. Brain Res. Bull. 41:143-150 (1996), all of which are herein incorporated by reference). Culture samples were collected in perchloric acid at day 65 of differentiation. For some experiments DA was measured directly in the medium using the same detection system but following aluminum extraction of dopamine and its metabolites using a commercially available kit as described previously (Studer, et al. Brain Res. Bull. 41:143-150 (1996), herein incorporated by reference). […]

rodent GSK3β homologs = details: cited from earlier work
rosette stage cells = assay: Rosette-based DA neuron induction culture; assay type: cell-based, human; details: concentration suitable for patterning floor plate cells
From the text: Both protocols used dual-SMAD inhibition to accelerate neural fate acquisition. LDN was used for BMP inhibition in the floor plate protocol while the traditional noggin induction was used for rosette cultures. The abbreviations are: LDN: LDN-193189, SB: SB431542, SHH (purmorphamine+SHH C25II), FGF8: FGF8, BAGCT: BDNF+ascorbic acid+GDNF+dbcAMP+TGFβ3. SHH/FGF8 in the rosette protocol used SHH C25I alone in the absence of purmorphamine following the initial recommendation for patterning of rosette-derived DA neuron cultures. […] BASF: BDNF+ascorbic acid+SHH/FGF8.
For rosette-based DA neuron induction previously described protocols were followed in part (Perrier, et al. Proc Natl Acad Sci USA 101:12543-8 (2004), herein incoropoated by reference) with at least one exception where dual-SMAD inhibition was used to accelerate the initial neural induction step. In brief, hESCs were induced towards neural fate by coculture with irradiated MS5 cells in KSR supplemented with SB431542 and Noggin (250 ng/ml (ranging in concentration from 10-1000 ng/ml); R&D), from day 2-8 and SHH+FGF8 from day 6-11 of differentiation. After 11 days in KSR, neural rosettes were manually isolated and cultured (P1 stage) in N2 medium supplemented with SHH, FGF8, BDNF and AA as described previously (Perrier, et al. Proc Natl Acad Sci USA 101:12543-8 (2004), herein incorporated by reference). […]

[1] = system: control-iPSC derived TH+ DA neurons; assay: Toxin challenge, TH immunocytochemistry; assay type: cell-based, human; details: 5 uM, 48 hr, floor-plate protocol, day 60
Procedure: (§2) PD-iPSC derived TH+ DA neurons derived via the floor-plate based protocols of the present inventions were more vulnerable to toxin challenge (valinomycin: mitochondria ionophore, 5 uM, 48 hr) than control-iPSC derived cells. […] G-H) low power images of immunocytochemistry for Tuj1 (red) and TH (green) by floor-plate based protocol at day 60 of differentiation: PD-iPSC of normal (G), versus toxin challenge (H) conditions and control iPSC of normal (I), versus toxin challenge (J) conditions. K-N) low power images of immunocytochemistry for Tuj1 (red) and TH (green) by MS5 based protocol at day 60 of differentiation: PD-iPSC of normal (K), versus toxin challenge (L) conditions and control iPSC of normal (M), versus toxin challenge (N) conditions.
(§3) E. DA neurons derived from genetic PD-iPS cells are more vulnerable to toxic stimulation. FIG. 24-25. PD-iPSC derived TH+DA neurons derived via floor-plate based protocol were more vulnerable to toxin challenge (valinomycin: mitochondria ionophore, 5 uM (ranging in concentration from 1-10 uM), 48 hr) than control-iPSC derived cells. […] Normal condition both of PD- and control-iPSC derived cultures obtained via MS5 based protocol (D, PD-iPSC derived cells shown), TH+ neurons following toxin challenge in PD-iPSC (E), and control-iPSC derived cultures (F) obtained via MS5 protocol. G-H) low power images of immunocytochemistry for Tuj1 (red) and TH (green) by floor-plate based protocol at day 60 of differentiation: PD-iPSC of normal (G), versus toxin challenge (H) conditions and control iPSC of normal (I), versus toxin challenge (J) conditions. K-N) low power images of immunocytochemistry for Tuj1 (red) and TH (green) by MS5 based protocol at day 60 of differentiation: PD-iPSC of normal (K), versus toxin challenge (L) conditions and control iPSC of normal (M), versus toxin challenge (N) conditions. F.
(§4) Exemplary DA neurons derived from PINK1 mutant PD-iPSC are more vulnerable to toxic stimulation. […]

[2] = system: PINK1 mutant PD-iPSC derived TH+ DA neurons; assay: Toxin challenge, TH immunocytochemistry; assay type: cell-based, human
Procedure: as §2, §3, §4

[3] = system: PD-iPSC and control iPSC derived cells; assay: Cell viability assay with alamar-blue, dose response for toxin challenge; assay type: cell-based, human; details: 48 hrs, 5 and 10 uM, day 60
From the text: Note: this assay tests for overall cell death while the most dramatic effects were observed specifically in DA neurons (see FIG. 14). Therefore, alamar blue based quantification will likely underestimate the extent of the differential effect observed on DA neuron lineages.
Exemplary quantification of cell viability—dose response assay for toxin challenge. […] Note: this assay tests for overall cell death while the most dramatic effects were observed specifically in DA neurons (see FIG. 14). Therefore, alamar blue based quantification will likely underestimate the extent of the differential effect observed on DA neuron lineages.
Exemplary quantification of cell viability-dose response assay for toxin challenge. […] Note: this assay tests for overall cell death while the most dramatic effects were observed specifically in DA neurons (see FIG. 14). Therefore, alamar blue based quantification will likely underestimate the extent of the differential effect observed on DA neuron lineages.

Cc1c[nH]c(-c2cnc(NCCNc3ccc(C#N)cn3)nc2-c2ccc(Cl)cc2Cl)n1 [CHIR99021, 6-(2-(4-(2,4-dichlorophenyl)-5-(4-methyl-1H-imidazol-2-yl)pyrimidin-2-ylamino)ethylamino)nicotinonitrile]
potency at inducing LMX1A expression compared with recombinant Wnt3A or Wnt1 (hESC): more potent
timing of exposure giving maximum LMX1A induction (hESC): day 3-11
LMX1A induction in FOXA2+ floor plate precursors (hESC; day 11): induced LMX1A
co-expression of FOXA2/LMX1A (hESC; day 11): induced co-expression
IC50 against rodent GSK3β homologs (rodent GSK3β homologs): nanomolar

c1ccc2c(Oc3nc(Nc4ccc(N5CCOCC5)cc4)c4ncn(C5CCCCC5)c4n3)cccc2c1 [Purmorphamine]
toxicity at rosette stage (rosette stage cells): shows toxicity

CC(C)[C@@H]1NC(=O)[C@H](C)OC(=O)[C@@H](C(C)C)NC(=O)[C@@H](C(C)C)OC(=O)[C@H](C(C)C)NC(=O)[C@H](C)OC(=O)[C@@H](C(C)C)NC(=O)[C@@H](C(C)C)OC(=O)[C@H](C(C)C)NC(=O)[C@H](C)OC(=O)[C@@H](C(C)C)NC(=O)[C@@H](C(C)C)OC1=O [valinomycin]
degeneration of TH+ DA neurons [1]: partially degenerated
degeneration of TH+ DA neurons ([2]; 5 uM, 48 hr, floor-plate protocol, day 60): nearly complete degeneration
vulnerability of PD- versus control-derived TH+ neurons ([2]; classic MS5 based protocol): did not show differential vulnerability
cell survival PD-iPSC versus control iPSC [3]: differential cell survival

B1: FGF8: Fibroblast growth factor 8 (protein, UniProt P55075 23-233, looked up)
Fibroblast growth factor 8: QEGPGRGPALGRELASLFRAGREPQGVSQQHVREQSLVTDQLSRRLIRTYQLYSRTSGKHVQVLANKRINAMAEDGDPFAKLIVETDTFGSRVRVRGAETGLYICMNKKGKLIAKSNGKGKDCVFTEIVLENNYTALQNAKYEGWYMAFTRKGRPRKGSKTRQHQREVHFMKRLPRGHHTTEQSLRFEFLNYPPFTRSLRGSQRTWAPEPR
co-expression of FOXA2/LMX1A (hESC; day 11): only marginal effects
